Test results reported in BindingDB's records for doi:10.7270/Q2HM57BR (D3R/Abbott, 2015).

Each compound was assayed against T1, UDP-3-O-acyl-N-acetylglucosamine deacetylase (Pseudomonas aeruginosa (strain ATCC 15692 / DSM 22644 / CIP 104116 / JCM 14847 / LMG 12228 / 1C / PRS 101 / PAO1), UniProt P47205) (assay: Thermofluor_Method1).
T1 sequence (P47205 whole entry): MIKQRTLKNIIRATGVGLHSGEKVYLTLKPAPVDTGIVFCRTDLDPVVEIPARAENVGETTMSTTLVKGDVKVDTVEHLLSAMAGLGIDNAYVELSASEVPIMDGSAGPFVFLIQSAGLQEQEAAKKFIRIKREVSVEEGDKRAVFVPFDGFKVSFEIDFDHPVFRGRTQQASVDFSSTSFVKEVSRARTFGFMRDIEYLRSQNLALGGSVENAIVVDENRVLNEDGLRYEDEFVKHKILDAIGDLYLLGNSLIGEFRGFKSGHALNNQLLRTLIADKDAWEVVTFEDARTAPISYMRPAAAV
For `CN(C)c1ccc(-c2nc(C(=O)NO)cs2)cc1` [CS278], the Kd was 28.2 µM.
`NC[C@H](NC(=O)c1ccc(-c2ccc(Br)cc2)cc1)C(=O)NO` [CS250] gave a Kd of 0.19 µM.
Compound `C[C@@H](O)[C@H](NC(=O)c1ccc(C#CC#Cc2ccccc2)cc1)C(=O)NCC1(C)NC(=O)NC1=O` (stereo partly specified) [CS255] has a Kd of over 100 µM.
`C[C@@H](O)[C@H](NC(=O)c1ccc(C#CC#Cc2ccccc2)cc1)C(=O)NO` [CS257] gave a Kd of 0.00835 µM.
Work on `O=C(NO)c1csc(-c2ccc(F)c(C(F)(F)F)c2)n1` [CS277] yielded a Kd of 2.91 µM.
In the case of `C[C@@H](O)[C@H](NC(=O)c1ccc(-c2ccc(Br)cc2)cc1)C(=O)NCC1(C)NC(=O)NC1=O` (stereo partly specified) [CS256], the Kd is reported as over 100 µM.
In the case of `NC[C@H](NC(=O)c1ccc(-c2ccccc2)cc1)C(=O)NO` [CS249], the Kd is reported as 0.393 µM.
In the case of `O=C(NO)[C@H]1COC(c2ccc([N+](=O)[O-])cc2)=N1` [CS268], the Kd is reported as 7.25 µM.
Compound `C[C@@H](O)[C@H](NC(=O)c1ccc(-c2ccc(Br)cc2)cc1)C(=O)NO` [CS258] has a Kd of 0.0332 µM.
Work on `O=C(NO)[C@H]1COC(c2cc3cc(F)ccc3[nH]2)=N1` [CS272] yielded a Kd of 1.5 µM.
Work on `O=C(NO)[C@H]1COC(c2ccc(OCc3cccc(F)c3)c(OC(F)(F)F)c2)=N1` [CS269] yielded a Kd of over 100 µM.
Compound `O=C(NO)[C@H]1COC(c2ccc(F)cc2)=N1` [CS279] has a Kd of 11.1 µM.
`O=C(NO)c1csc(-c2ccc(OC(F)(F)F)c(Cl)c2)n1` [CS275] was tested, and the Kd was 21.5 µM.
`NC[C@H](NC(=O)c1ccc(C#CC#Cc2ccccc2)cc1)C(=O)NO` [CS252] showed a Kd of 0.0586 µM.
With `CC1(CNC(=O)[C@H](CN)NC(=O)c2ccc(-c3ccc(Br)cc3)cc2)NC(=O)NC1=O` (stereo partly specified) [CS267] the Kd was over 100 µM.
Work on `CC1(CNC(=O)c2ccc(C#Cc3ccccc3)cc2)NC(=O)NC1=O` (stereo unspecified) [CS22] yielded a Kd of 93.4 µM.
Compound `C[C@@H](O)[C@H](NC(=O)c1ccc(C#Cc2ccccc2)cc1)C(=O)NCC1(C)NC(=O)NC1=O` (stereo partly specified) [CS254] has a Kd of over 100 µM.
With `CCCc1ccc(-c2ccc(C3=N[C@@H](C(=O)NO)CO3)cc2)cc1` [CS274] the Kd was 15.6 µM.
With `CC1(CNC(=O)c2ccc(C#CC#Cc3ccccc3)cc2)NC(=O)NC1=O` (stereo unspecified) [CS243] the Kd was 63.9 µM.
With `CC1(CNC(=O)[C@H](CN)NC(=O)c2ccc(C#Cc3ccccc3)cc2)NC(=O)NC1=O` (stereo partly specified) [CS266] the Kd was over 100 µM.
For `CC1(CNC(=O)[C@H](CN)NC(=O)c2ccc(C#CC#Cc3ccccc3)cc2)NC(=O)NC1=O` (stereo partly specified) [CS265], the Kd was over 100 µM.
With `CC1(CNC(=O)c2ccc(-c3ccc(Br)cc3)cc2)NC(=O)NC1=O` (stereo unspecified) [CS23] the Kd was over 100 µM.
For `O=C(NO)C1=C[SiH2]C(c2ccc(F)cc2)=N1` (stereo unspecified) [CS276], the Kd was 28.5 µM.
Work on `CC1(CNC(=O)[C@H](CN)NC(=O)c2ccc(-c3ccccc3)cc2)NC(=O)NC1=O` (stereo partly specified) [CS264] yielded a Kd of over 100 µM.
Work on `CN(C)c1ccc(C2=N[C@@H](C(=O)NO)CO2)cc1` [CS273] yielded a Kd of over 100 µM.
Compound `C[C@@H](O)[C@H](NC(=O)c1ccc(-c2ccccc2)cc1)C(=O)NO` [CS263] has a Kd of 0.0745 µM.
`C[C@@H](O)[C@H](NC(=O)c1ccc(C#Cc2ccccc2)cc1)C(=O)NO` [CS259] showed a Kd of 0.0201 µM.
For `CC1(CNC(=O)c2ccc(-c3ccccc3)cc2)NC(=O)NC1=O` (stereo unspecified) [CS21], the Kd was over 100 µM.
In the case of `O=C(NO)[C@H]1COC(c2ccc(F)c(C(F)(F)F)c2)=N1` [CS271], the Kd is reported as 1.03 µM.
With `C[C@@H](O)[C@H](NC(=O)c1ccc(-c2ccccc2)cc1)C(=O)NCC1(C)NC(=O)NC1=O` (stereo partly specified) [CS253] the Kd was over 100 µM.
`O=C(NO)[C@H]1COC(c2ccc(OC(F)(F)F)c(Cl)c2)=N1` [CS270] showed a Kd of 3.8 µM.
